Experimental data: PubChem BioAssay (NCI)
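Compound exposure: 48 hours, 5 concentrations, 96-well plates. The concentration for full growth arrest is given as TGI.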 Where a SMILES comes first, the peptide text is derived from it. The star is where a group is joined. Boc = CC(C)(C)OC(=O)*

What was measured:
Assay in all cases: growth of human tumour cells (NCI), 48 h
[1] = test system: COLO 205 colon
[2] = test system: CCRF-CEM leukemia
[3] = test system: DU-145 prostate
[4] = test system: SK-OV-3 ovarian
[5] = test system: HCT-15 colon
[6] = test system: EKVX NSCLC
[7] = test system: SK-MEL-28 melanoma
[8] = test system: HCT-116 colon
[9] = test system: IGROV1 ovarian
[10] = test system: TK-10 renal
[11] = test system: NCI-H226 lung
[12] = test system: SF-295 CNS

Structure (SMILES) | TGI [1] [µM] | TGI [2] [µM] | TGI [3] [µM] | TGI [4] [µM] | TGI [5] [µM] | TGI [6] [µM] | TGI [7] [µM] | TGI [8] [µM] | TGI [9] [µM] | TGI [10] [µM] | TGI [11] [µM] | TGI [12] [µM]
CC1CC/C(=C\c2ccc(Cl)cc2)C(=O)/C1=C\c1ccc(Cl)cc1 (stereo not given) | 73 | > 100 | > 100 | > 100 | 50.4 | 63.7 | > 100 | > 100 | 46.9 | 79.8 | – | –
COc1cc(/C=C2\N=C(c3ccccc3)N(c3ccc(S(=O)(=O)Nc4nccs4)cc3)C2=O)ccc1O | > 100 | > 100 | > 100 | > 100 | > 100 | > 100 | – | > 100 | > 100 | > 100 | > 100 | > 100
COc1ccccc1-c1n[nH]c(-c2ccccc2O)n1 | > 100 | > 100 | > 100 | > 100 | > 100 | – | > 100 | > 100 | – | > 100 | > 100 | > 100
CN1NC2=NCCN=C3NN(C)C(=NCCN=C1S2)S3 | > 100 | > 100 | – | – | > 100 | > 100 | > 100 | > 100 | > 100 | – | > 100 | > 100
O=[N+]([O-])/C(C(Cl)=C(Cl)Cl)=C(\Nc1cccc2cccnc12)Sc1ccccc1 | 31.6 | > 100 | 78.4 | > 100 | 34.4 | > 100 | 36 | 39 | – | – | 86.6 | 51.4
O=C1CCCSCCCC(=O)CCCSCCC1 | > 100 | > 100 | > 100 | > 100 | > 100 | > 100 | > 100 | > 100 | > 100 | > 100 | – | > 100
CC(C)(C)c1ccc(Oc2ccc(C#N)c(C#N)c2)c(C(C)(C)C)c1 | > 59.1 | > 66.2 | – | > 100 | 31.3 | > 100 | > 100 | > 60.1 | > 100 | > 100 | > 100 | > 100
Cc1ccc(-n2nnc3c(NNc4ccccc4)n[nH]c(=O)c32)cc1 | > 100 | > 100 | > 100 | – | > 100 | > 100 | > 100 | > 100 | – | 75.4 | > 100 | > 100
COC(=O)C1=C(O)C(C(=O)OC)[C@]2(O)[C@H](C(=O)OC)[C@H]1C[C@@H](c1ccc(Cl)cc1Cl)[C@H]2C(=O)OC (stereo not given in full) | 20.9 | – | 25.7 | 47.9 | 27.6 | > 100 | 53.6 | 18.9 | 19.3 | 26.2 | 16.3 | 31.6
COC(=O)C(Cc1c[nH]c2ccccc12)NC(=O)C(Cc1c[nH]c2ccccc12)NC(=O)C(Cc1c[nH]c2ccccc12)NC(=O)C(Cc1c[nH]c2ccccc12)NC(=O)C(Cc1c[nH]c2ccccc12)NC(=O)OC(C)(C)C (stereo not given) (Boc-WWWWW-OMe; configuration not given here) | – | > 100 | > 100 | – | > 100 | – | > 100 | > 100 | > 100 | > 100 | > 100 | –
Nc1nc([O-])c([I+]c2ccccc2)c(=O)[nH]1 | > 100 | > 100 | > 100 | – | > 100 | > 100 | > 100 | > 100 | > 100 | > 100 | > 100 | > 100
Brc1nc2c3ccccc3ncn2c1Br | 29.8 | > 100 | – | > 100 | > 100 | 95.9 | > 100 | > 100 | > 100 | > 100 | > 100 | > 100
CC(C)C(=O)CC(Sc1ccc(N)cc1)c1ccccc1 (stereo not given) | > 100 | 70.7 | > 100 | 58.4 | > 100 | – | > 100 | 28.7 | > 100 | > 100 | > 100 | > 100
Cc1cc(Cl)ccc1NC(=O)/C(Cc1nc2ccc(C(=O)c3ccccc3)cc2[nH]c1=O)=N/NC(=O)c1ccncc1 | – | > 100 | – | > 100 | > 100 | > 100 | > 100 | > 100 | > 100 | > 100 | > 100 | > 100
CN(C(=O)C12C3C4C1C1C2C3C41C(=O)O)C(C)(C)C (stereo not given) | > 100 | > 100 | > 100 | – | > 100 | > 100 | > 100 | > 100 | > 100 | > 100 | – | > 100
COc1ccc(OC)c2sc(N3C(=O)/C(=C/c4ccc(N(C)C)cc4)N=C3c3ccccc3)nc12 | > 100 | 24.5 | > 100 | > 100 | > 100 | > 100 | > 100 | > 100 | > 100 | > 100 | – | > 100
CCOC(=O)/C(=C\NC[C@@H](C)O)c1nc2ccccc2[nH]1 | > 100 | – | > 100 | > 100 | > 100 | > 100 | > 100 | > 100 | > 100 | > 100 | – | > 100
Cc1c2[nH]c3ccc(Br)cc3c2c(C)c2[nH]ccc(=O)c12 | 27.1 | 31.6 | – | – | 30.4 | 33.5 | 34.8 | 28.2 | – | 26.9 | 35.9 | 28.7
COc1ccc2c(c1OC)C(Br)CCC(Br)(Br)C2=O (stereo not given) | 10.1 | – | 24.9 | 31.2 | 25.6 | 29.4 | 29.3 | 17.3 | 18.8 | 19.4 | 30.1 | 32.5
CN(OC(=O)CC(=O)c1ccccc1)C(=O)Cc1ccccc1 | > 100 | > 100 | – | > 100 | > 100 | > 100 | – | > 100 | > 100 | > 100 | > 100 | > 100
